Results: PMC9490041, “Determinants of affinity, specificity, and phase separation in a supramodule from Post-synaptic density protein 95” (iScience, 2022)
Read-outs that look alike come from different tables or passages of the source. Ends that are not written are not given here.

Legend:
[1] = molecular target: PSG (PSD-95); test: FP saturation binding of FITC-15 AA CRIPT probe; conditions: read-out: Kd probe, 5 nM FITC-15 AA CRIPT, room temperature, PSG WT
[2] = molecular target: PSG G322A G335A (PSD-95); test: FP saturation binding of FITC-15 AA CRIPT probe; conditions: read-out: Kd probe, 5 nM FITC-15 AA CRIPT, room temperature
[3] = molecular target: PSG (PSD-95); test: FP displacement (competition) of FITC-15 AA CRIPT by library peptide, IC50 and Ki; conditions: for IC50: read-out: IC50 (µM), PSG
[4] = molecular target: PSG G322A (PSD-95); test: as above; conditions: for IC50: read-out: IC50 (µM), PSG G322A; for Ki: read-out: Ki (µM), PSG G322A
[5] = molecular target: PSG G335A (PSD-95); test: as above; conditions: for IC50: read-out: IC50 (µM), PSG G335A; for Ki: read-out: Ki (µM), PSG G335A
[6] = molecular target: PSG G322A G335A (PSD-95); test: as above; conditions: for IC50: read-out: IC50 (µM), PSG G322A G335A
[7] = molecular target: PSG F325A (PSD-95); test: as above; conditions: for IC50: read-out: IC50 (µM), PSG F325A
[8] = molecular target: PDZ3 (PSD-95) (Homo sapiens, UniProt P78352); test: as above
[9] = system: PDZ1-2 (PSD-95); test: Isothermal titration calorimetry; type: binding; conditions: ITC
[10] = FP displacement of 5 nM FITC-15 AA CRIPT by non-labeled acetylated peptide, room temperature, Ki from IC50, technical triplicates, PSG
[11] = FP displacement of FITC-15 AA CRIPT probe by PSD library peptide, protein PSG G322A
[12] = FP displacement of FITC-15 AA CRIPT probe by PSD library peptide, protein PSG G335A
[13] = FP displacement of FITC-15 AA CRIPT probe by acetylated PSD library peptide
[14] = FP displacement of FITC-15 AA CRIPT probe by library peptide

PDZ3 (PSD-95), sequence (P78352 313-393 limits assumed): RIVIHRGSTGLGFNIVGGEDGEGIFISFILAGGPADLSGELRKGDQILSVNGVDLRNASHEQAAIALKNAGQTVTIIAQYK

Work on `CC(C)C[C@H](NC(=O)[C@@H](NC(=O)[C@H](CCCCN)NC(=O)[C@H](CCCCN)NC(=O)[C@H](Cc1ccc(O)cc1)NC(=S)Nc1ccc2c(c1)C(=O)OC21c2ccc(O)cc2Oc2cc(O)ccc21)C(C)C)C(=O)N[C@@H](CC(=O)O)C(=O)N[C@H](C(=O)N[C@@H](CCCCN)C(=O)N[C@@H](CC(N)=O)C(=O)N[C@@H](Cc1ccc(O)cc1)C(=O)N[C@@H](CCCCN)C(=O)N[C@@H](CCC(N)=O)C(=O)N[C@H](C(=O)N[C@@H](CO)C(=O)N[C@H](C(=O)O)C(C)C)[C@@H](C)O)[C@@H](C)O` [FITC-15 AA CRIPT] yielded a Kd [1] of 2200 ± 220 nM and a Kd [2] of 160 ± 20 nM.
Work on `CC[C@H](C)[C@H](NC(=O)[C@H](CCCCN)NC(=O)[C@@H]1CCCN1C(=O)[C@H](CC(C)C)NC(=O)[C@H](CCCNC(=N)N)NC(=O)[C@H](Cc1c[nH]cn1)NC(=O)[C@H](CO)NC(=O)CNC(=O)[C@H](CC(=O)O)NC(=O)[C@H](Cc1ccc(O)cc1)NC(C)=O)C(=O)N[C@@H](CCCCN)C(=O)N[C@@H](CCC(=O)O)C(=O)N[C@H](C(=O)N[C@H](C(=O)N[C@H](C(=O)O)C(C)C)[C@@H](C)O)[C@@H](C)O` [FRPD4] yielded a Ki [3, 10] of under 75 µM, an IC50 ([3]; FP displacement of FITC-15 AA CRIPT probe by PSD library peptide, protein PSG (wild type)) of 6 µM and a Ki ([3]; read-out: Ki (µM), PSG, FP displacement of FITC-15 AA CRIPT probe by PSD library peptide, protein PSG (wild type)) of 2.43 µM. The IC50 [4, 11] was 3.4 µM, the Ki [4, 11] was 1.33 µM and the IC50 [5, 12] was 2.55 µM. For the same compound, the Ki [5, 12] was 0.753 µM, the IC50 ([6]; FP displacement of FITC-15 AA CRIPT probe by PSD library peptide, protein PSG G322A G335A) was 2.47 µM and the Ki ([6]; read-out: Ki (µM), PSG G322A G335A, FP displacement of FITC-15 AA CRIPT probe by PSD library peptide, protein PSG G322A G335A) was 0.777 µM. The IC50 ([7]; FP displacement of FITC-15 AA CRIPT probe by PSD library peptide, protein PSG F325A) was 18 µM and the Ki ([7]; read-out: Ki (µM), PSG F325A, FP displacement of FITC-15 AA CRIPT probe by PSD library peptide, protein PSG F325A) was 9 µM.
`CC(=O)N[C@@H](Cc1ccc(O)cc1)C(=O)N[C@@H](CCC(N)=O)C(=O)N[C@@H](CCCNC(=N)N)C(=O)NCC(=O)N[C@@H](CO)C(=O)N[C@@H](Cc1ccccc1)C(=O)N1CCC[C@H]1C(=O)N1CCC[C@H]1C(=O)N[C@@H](Cc1c[nH]c2ccccc12)C(=O)N[C@H](C(=O)N[C@@H](CCC(N)=O)C(=O)N[C@@H](CCC(N)=O)C(=O)N[C@H](C(=O)N[C@@H](CCCNC(=N)N)C(=O)N[C@H](C(=O)O)C(C)C)[C@@H](C)O)C(C)C` [SYNGAP⍺1] showed a Ki [3, 10] of under 75 µM, an IC50 [3, 13] of 4.24 µM and a Ki ([3]; read-out: Ki (µM), PSG, FP displacement of FITC-15 AA CRIPT probe by acetylated PSD library peptide) of 0.913 µM. The IC50 [4, 13] was 1.31 µM, the Ki [4, 13] was 0.4 µM and the IC50 [5, 13] was 1.12 µM. For the same compound, the Ki [5, 13] was 0.24 µM, the IC50 ([6]; FP displacement of FITC-15 AA CRIPT probe by acetylated PSD library peptide (P-13 to P0 plus extra N-terminal Y)) was 0.922 µM and the Ki ([6]; read-out: Ki (µM), PSG G322A G335A, FP displacement of FITC-15 AA CRIPT probe by acetylated PSD library peptide) was 0.243 µM. The IC50 [7, 13] was 8 µM.
In the case of Ac-YSSPAQSVTPVQTVV [MTMR2], the IC50 [8] is reported as 333 µM, the Ki ([8]; Ki (µM), PDZ3, FP displacement of FITC-15 AA CRIPT probe by library peptide) is reported as 139 µM and the IC50 [3, 14] is reported as 271 µM. The Ki ([3]; read-out: Ki (µM), PSG, FP displacement of FITC-15 AA CRIPT probe by library peptide) was 115 µM, the IC50 [4, 14] was 295 µM and the IC50 [5, 14] was 277 µM. The Ki [5, 14] was 99 µM and the Ki ([6]; FP displacement of 5 nM FITC-15 AA CRIPT by non-labeled acetylated peptide, room temperature, Ki from IC50, PSG G322A G335A) was 95 µM.
In the case of “FL CC ADGRB1: expressed full-length coiled-coil C-terminal part of ADGRB1, residues 1,471–1,584”, the “Higher affinity for PDZ1-2 in comparison with PSG WT” value [9] is reported as 3 fold.
